Data reported in patent US9062051B2, “Compounds and pharmaceutical compositions thereof for the treatment of proliferative disorders” (GALAPAGOS NV, priority 2014, dated 2015).

What was measured:
EphB4 = molecular target: T1, EphB4 (UniProt Ref: Q541P7) (Homo sapiens, UniProt P54760); assay: EphB4 assay (Reaction Biology HotSpot radioactive kinase assay); type: biochemical; details: ATP 10 μM; read-out: EphB4 potency IC50
T1 construct: purchased Reaction Biology
T1 sequence (P54760 16-987): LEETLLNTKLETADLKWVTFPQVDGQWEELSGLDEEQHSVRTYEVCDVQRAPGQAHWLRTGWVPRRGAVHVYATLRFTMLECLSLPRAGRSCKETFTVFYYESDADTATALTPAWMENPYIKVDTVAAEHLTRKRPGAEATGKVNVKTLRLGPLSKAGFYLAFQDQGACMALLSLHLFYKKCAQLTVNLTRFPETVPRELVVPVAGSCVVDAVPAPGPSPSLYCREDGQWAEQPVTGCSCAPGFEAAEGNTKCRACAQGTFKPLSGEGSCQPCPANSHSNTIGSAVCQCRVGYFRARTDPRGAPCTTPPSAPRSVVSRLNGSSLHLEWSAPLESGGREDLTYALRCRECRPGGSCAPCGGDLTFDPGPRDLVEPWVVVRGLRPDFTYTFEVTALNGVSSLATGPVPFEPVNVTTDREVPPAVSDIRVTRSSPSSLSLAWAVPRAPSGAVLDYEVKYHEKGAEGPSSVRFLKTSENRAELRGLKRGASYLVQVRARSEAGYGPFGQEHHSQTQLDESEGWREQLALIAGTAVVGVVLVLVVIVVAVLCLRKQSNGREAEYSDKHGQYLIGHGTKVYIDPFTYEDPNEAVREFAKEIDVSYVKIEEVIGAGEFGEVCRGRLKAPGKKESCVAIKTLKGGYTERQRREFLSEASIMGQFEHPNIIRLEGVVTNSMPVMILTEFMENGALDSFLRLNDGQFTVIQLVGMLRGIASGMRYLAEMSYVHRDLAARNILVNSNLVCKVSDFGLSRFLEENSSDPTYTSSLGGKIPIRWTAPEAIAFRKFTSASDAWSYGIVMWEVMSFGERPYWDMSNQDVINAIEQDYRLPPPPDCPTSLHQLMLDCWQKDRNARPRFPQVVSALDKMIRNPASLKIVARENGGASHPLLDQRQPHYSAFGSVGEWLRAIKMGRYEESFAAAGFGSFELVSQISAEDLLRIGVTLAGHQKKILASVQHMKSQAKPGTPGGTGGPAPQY
Procedure: (§1) Inhibition of EphB4 (UniProt Ref: Q541P7) by a test compound is determined by a commercially available Reaction Biology proprietary nanoliter radioactive HotSpot^SM assay (Reaction Biology, One great valley parkway, Suite 2, Malvern Pa., 19355, USA). The principle of the assay consists of the measurement of incorporated ^33P into poly[Glu:Tyr] (4:1) (0.2 mg/mL) when the substrate is phosphorylated by the enzyme using [^33P]-γ-ATP and ATP (10 μM).
(§2) To determine the IC50, a serial dilution of compound is tested starting from 10 or 3 μM (highest dilution) with a 1/3 dilution.

EphA4 = molecular target: T2, EphA4 (UniProt Ref: P54764) (Homo sapiens, UniProt P54764); assay: EphA4 assay (Reaction Biology HotSpot radioactive kinase assay); type: biochemical; details: EphA4 potency; ATP 10 μM
T2 construct: purchased Reaction Biology
T2 sequence (P54764 20-986): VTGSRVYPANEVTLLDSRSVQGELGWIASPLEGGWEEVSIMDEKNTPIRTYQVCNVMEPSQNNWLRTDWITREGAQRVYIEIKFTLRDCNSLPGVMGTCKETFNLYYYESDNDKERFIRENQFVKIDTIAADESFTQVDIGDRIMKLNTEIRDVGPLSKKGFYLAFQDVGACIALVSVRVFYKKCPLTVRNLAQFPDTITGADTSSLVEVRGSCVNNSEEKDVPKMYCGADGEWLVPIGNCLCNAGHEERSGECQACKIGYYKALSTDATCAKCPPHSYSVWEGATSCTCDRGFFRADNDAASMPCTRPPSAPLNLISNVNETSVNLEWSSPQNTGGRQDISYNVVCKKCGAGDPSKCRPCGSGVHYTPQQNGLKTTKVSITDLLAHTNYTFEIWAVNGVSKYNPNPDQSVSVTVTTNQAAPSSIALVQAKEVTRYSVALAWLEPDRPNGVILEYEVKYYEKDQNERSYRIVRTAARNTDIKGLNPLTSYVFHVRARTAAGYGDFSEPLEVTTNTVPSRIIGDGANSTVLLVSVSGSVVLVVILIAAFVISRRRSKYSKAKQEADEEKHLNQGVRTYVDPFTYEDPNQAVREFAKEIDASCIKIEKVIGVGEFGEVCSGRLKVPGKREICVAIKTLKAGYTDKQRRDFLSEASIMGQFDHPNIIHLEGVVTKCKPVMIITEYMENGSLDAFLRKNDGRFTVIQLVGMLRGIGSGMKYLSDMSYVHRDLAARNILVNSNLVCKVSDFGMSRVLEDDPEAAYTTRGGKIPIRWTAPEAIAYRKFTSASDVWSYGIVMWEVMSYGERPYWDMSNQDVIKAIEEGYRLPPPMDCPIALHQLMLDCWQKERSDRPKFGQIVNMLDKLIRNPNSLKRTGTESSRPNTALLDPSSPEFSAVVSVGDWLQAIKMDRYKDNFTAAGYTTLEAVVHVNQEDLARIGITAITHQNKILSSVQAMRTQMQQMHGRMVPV
Procedure: as §1, with “EphA4” for “EphB4”, “P54764)” for “Q541P7)”
as §2

[1] = In vivo efficacy in the rat MNX (meniscectomised) model of osteoarthritis, OARSI score; parameters: species or system female Lewis rat; details: versus MNX-vehicle
Source text: In vivo efficacy was studied in a female Lewis meniscectomised rat (MNX) model. The MNX rat model is a well-validated disease model of osteoarthritis (Janusz et al., 2002; Pritzker et al., 2006; Bendele et al., 2001).
Osteoarthritis is induced by meniscectomy at day 0 (D0) in the right leg of each rat by a transection of the medial collateral ligament and 4 mm of ligament are removed. Internal part of the meniscus is transected vertically into two flaps which are pushed to the front and the back of the synovial cavity. Sham animals undergo only anaesthesia, skin and muscle incision then suture. On day 1, rats are randomly assigned to a treatment group (n=20 per group) according to their body weight, in order to have a homogenous distribution. From D2 to D21, rats are dosed per os (po) once daily (qd) or twice a day (bid) with compounds formulated in methylcellulose (MC) 0.5% or in HPβCD 10% pH3.0.
After at least 7 days of treatment, blood is sampled at 4 time points post administration: 0, 1, 3 and 6 h (and assuming 24 h is equal to the pre-dose sample), in order to determine steady-state plasma exposure.
At sacrifice, the right tibia of each rat is collected and processed for histological analysis. After 48 h of fixation in 4% formaldehyde, tibias are decalcified in Osteosoft for 7 days, and cut into 2 half parts prior to embedding face to face in paraffin. Five series of sections are cut at 200 μm intervals, covering about 1.5 mm of the middle part of the bone. One series of slides is stained with Safranin O and light green for morphological evaluation and OARSI scoring. The other series of slides are mounted with DAPI for chondrocyte density measurement.
The extent of cartilage injury reflecting osteoarthritis in the tibial plateau is evaluated and scored using the OARSI method based on the grading and the staging of cartilage lesion (Pritzker et al., 2006). The OARSI scoring is assessed in a blinded manner by two different readers. For each tibia, one score is attributed as the median of the OARSI score of the 5 sections.
OARSI score=grade×stage (1 to 24)
Grade=lesion depth into cartilage area, providing information on arthritis severity.
Stage=lesion extent over cartilage surface, providing information on arthritis extent.
For statistical analysis, medians of groups are compared with a stratified Kruskal-Wallis test followed by Dunnett multiple comparison post hoc test.
Significance levels: *p<0.05; **p<0.01; ***p<0.001 versus MNX-vehicle. Statistical analyses are done on all groups of the studies

| IC50 (EphB4) [nM] | SMILES | further results |
| --- | --- | --- |
| 0.01 to 25 | Cc1ccc(NC(=O)c2cccc(C(F)(F)F)c2)cc1-c1ccc2c(C(O)CN3CCOCC3)n[nH]c2n1 (centres unmarked) [Compound 2, N-{3-[3-(1-Hydroxy-2-morpholin-4-yl-ethyl)-1H-pyrazolo[3,4-b]pyridin-6-yl]-4-methyl-phenyl}-3-trifluoromethyl-benzamide] | IC50 (EphA4): 0.01 to 25 nM; OARSI score ([1]; 20 mg/kg): −17%, p < 0.05 |
| 0.01 to 25 | Cc1cccc(C(=O)Nc2ccc(C)c(-c3ccc4c(C(O)CN5CCOCC5)n[nH]c4n3)c2)c1 (centres unmarked) [Compound 3, N-{3-[3-(1-Hydroxy-2-morpholin-4-yl-ethyl)-1H-pyrazolo[3,4-b]pyridin-6-yl]-4-methyl-phenyl}-3-methyl-benzamide] | – |
| 25 to 50 | COc1cc(OC)cc(C(=O)Nc2ccc(C)c(-c3ccc4c(C(O)CN5CCOCC5)n[nH]c4n3)c2)c1 (centres unmarked) [Compound 4, N-{3-[3-(1-Hydroxy-2-morpholin-4-yl-ethyl)-1H-pyrazolo[3,4-b]pyridin-6-yl]-4-methyl-phenyl}-3,5-dimethoxy-benzamide] | – |
| 25 to 50 | Cc1ccc(C(=O)Nc2cccc(C(F)(F)F)c2)cc1-c1ccc2c(C(O)CN3CCOCC3)n[nH]c2n1 (centres unmarked) [Compound 5, 3-[3-(1-Hydroxy-2-morpholin-4-yl-ethyl)-1H-pyrazolo[3,4-b]pyridin-6-yl]-4-methyl-N-(3-trifluoromethyl-phenyl)-benzamide] | – |
| 25 to 50 | Cc1ccc(NC(=O)c2cccc(N(C)C)c2)cc1-c1ccc2c(C(O)CN3CCOCC3)n[nH]c2n1 (centres unmarked) [Compound 6, 3-Dimethylamino-N-{3-[3-(1-hydroxy-2-morpholin-4-yl-ethyl)-1H-pyrazolo[3,4-b]pyridin-6-yl]-4-methyl-phenyl}-benzamide] | OARSI score ([1]; 30 mg/kg): ns |
| 25 to 50 | COc1cc(OC)cc(C(=O)Nc2ccc(C)c(-c3ccc4c(C(C)O)n[nH]c4n3)c2)c1 (centres unmarked) [Compound 9, N-{3-[3-(1-Hydroxy-ethyl)-1H-pyrazolo[3,4-b]pyridin-6-yl]-4-methyl-phenyl}-3,5-dimethoxy-benzamide] | IC50 (EphA4): 50 to 100 nM; OARSI score ([1]; 30 mg/kg): ns |
| 0.01 to 25 | COc1cc(OC)cc(C(=O)Nc2ccc(C)c(-c3ccc4c(C)n[nH]c4n3)c2)c1 [Compound 11, 3,5-Dimethoxy-N-[4-methyl-3-(3-methyl-1H-pyrazolo[3,4-b]pyridin-6-yl)-phenyl]-benzamide] | – |
| 25 to 50 | CCc1n[nH]c2nc(-c3cc(NC(=O)c4cc(OC)cc(OC)c4)cnc3C)ccc12 [Compound 13, N-[5-(3-Ethyl-1H-pyrazolo[3,4-b]pyridin-6-yl)-6-methyl-pyridin-3-yl]-3,5-dimethoxy-benzamide] | OARSI score ([1]; 30 mg/kg): ns |
| 0.01 to 25 | Cc1cc(C)cc(C(=O)Nc2ccc(C)c(-c3ccc4c(CO)n[nH]c4n3)c2)c1 [Compound 16, N-[3-(3-Hydroxymethyl-1H-pyrazolo[3,4-b]pyridin-6-yl)-4-methyl-phenyl]-3,5-dimethyl-benzamide] | – |
| 25 to 50 | COc1cc(OC)cc(C(=O)Nc2cnc(C)c(-c3ccc4c(C)n[nH]c4n3)c2)c1 [Compound 17, 3,5-Dimethoxy-N-[6-methyl-5-(3-methyl-1H-pyrazolo[3,4-b]pyridin-6-yl)-pyridin-3-yl]-benzamide] | – |
| 0.01 to 25 | CCc1n[nH]c2nc(-c3cc(NC(=O)c4cc(C)cc(OCCN5CCOCC5)c4)ccc3C)ccc12 [Compound 20, N-[3-(3-Ethyl-1H-pyrazolo[3,4-b]pyridin-6-yl)-4-methyl-phenyl]-3-methyl-5-(2-morpholin-4-yl-ethoxy)-benzamide] | – |
| 0.01 to 25 | CCc1n[nH]c2nc(-c3cc(NC(=O)c4cc(C)cc(OCCOC)c4)ccc3C)ccc12 [Compound 21, N-[3-(3-Ethyl-1H-pyrazolo[3,4-b]pyridin-6-yl)-4-methyl-phenyl]-3-(2-methoxy-ethoxy)-5-methyl-benzamide] | – |
| – | COc1cc(OC)cc(C(=O)Nc2ccc(C)c(-c3ccc4c(C5(O)CC5)n[nH]c4n3)c2)c1 [Compound 29, N-{3-[3-(1-Hydroxy-cyclopropyl)-1H-pyrazolo[3,4-b]pyridin-6-yl]-4-methyl-phenyl}-3,5-dimethoxy-benzamide] | IC50 (EphA4): > 100 nM; OARSI score ([1]; 15 mg/kg): ns |
| 25 to 50 | Cc1ccc(NC(=O)c2cccc(C(F)(F)F)c2)cc1-c1ccc2c(C(C)O)n[nH]c2n1 (centres unmarked) [Compound 35, N-{3-[3-(1-Hydroxy-ethyl)-1H-pyrazolo[3,4-b]pyridin-6-yl]-4-methyl-phenyl}-3-trifluoromethyl-benzamide] | – |
| > 100 | CCc1n[nH]c2nc(-c3cc(NC(=O)c4cc(OC)cc(C(F)(F)F)c4)cnc3C)ccc12 [Compound 49, N-[5-(3-Ethyl-1H-pyrazolo[3,4-b]pyridin-6-yl)-6-methyl-pyridin-3-yl]-3-methoxy-5-trifluoromethyl-benzamide] | – |
| 0.01 to 25 | CCc1n[nH]c2nc(-c3cc(NC(=O)c4cc(C)cc(C)c4)cnc3C)ccc12 [Compound 50, N-[5-(3-Ethyl-1H-pyrazolo[3,4-b]pyridin-6-yl)-6-methyl-pyridin-3-yl]-3,5-dimethyl-benzamide] | – |
| 0.01 to 25 | Cc1ccc(NC(=O)c2cccc(C(F)(F)F)c2)cc1-c1ccc2c([C@H](C)O)n[nH]c2n1 [Compound 55, N-{3-[3-((S)-1-Hydroxy-ethyl)-1H-pyrazolo[3,4-b]pyridin-6-yl]-4-methyl-phenyl}-3-trifluoromethyl-benzamide] | IC50 (EphA4): 25 to 50 nM; OARSI score ([1]; 30 mg/kg): −23%, p < 0.05 |
